Read-outs that look alike come from different tables or passages of the source.
What was measured:
[1] = target: T1, LXRβ ligand-binding domain (Homo sapiens, UniProt P55055, DUP175-175); test: TR-FRETβ activity assay (NCoA3 coactivator peptide recruitment); type: biochemical
T1 construct: amino acids 156-461; NP009052; made in house; host or cells: E. coli
T1 sequence (P55055 with tags, fused parts or gaps DUP175-175 limits assumed): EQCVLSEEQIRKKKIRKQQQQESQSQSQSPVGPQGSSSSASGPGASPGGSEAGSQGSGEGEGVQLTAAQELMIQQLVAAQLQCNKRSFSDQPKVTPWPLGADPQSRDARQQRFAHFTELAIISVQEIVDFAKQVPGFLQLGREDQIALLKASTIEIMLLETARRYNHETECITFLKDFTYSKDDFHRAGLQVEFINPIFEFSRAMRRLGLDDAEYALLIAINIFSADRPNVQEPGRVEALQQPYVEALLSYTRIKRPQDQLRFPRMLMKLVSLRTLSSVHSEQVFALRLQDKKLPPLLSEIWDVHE
How it was run: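 GST-tagged human LXRβ LBD (aa 156-461, E. coli) at 76 nM with 400 nM biotinylated NCoA3 peptide in Tris/HCl pH 6.8, 240 mM KCl, BSA, 0.002% Triton-X-100, plus 1 μM 24(S)-25-epoxycholesterol as prestimulating agonist. Compounds at 50 μM down to 0.002 μM, 1 h at 4 °C. Coactivator recruitment by TR-FRET (Tb cryptate/XL665, 615/665 nm), triplicates.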

[2] = Short term HFD mouse model: plasma and liver exposure; type: in vivo, mice (C57BL/6J); details: HFD mice, 4 h after last dose
How it was run: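 C57BL/6J mice on 60% fat HFD plus 1% cholesterol for 5 days, then dosed orally in 0.5% HPMC, three doses (1.5–20 mg/kg each): morning and evening day 1, final morning dose day 2 after 4 h fast. Sacrificed 4 h post-dose; liver snap-frozen, plasma collected.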

[3] = TR-FRET, 1 μM 24(S)-25-epoxycholesterol prestimulation, read-out: FRETβ (EC50 range)

With N#Cc1cccc(C#N)c1-c1c(-c2cccc(-c3ccc(C(=O)O)cc3F)c2)n(S(=O)(=O)c2ccc(C(F)F)cc2)c2ccc(F)cc12 [11/51] the EC50 [1, 3] was < 100 nM, the “liver exposure 4 h” value ([2]; three oral doses of 10 mg/kg) was “C (1 μM to ≤10 μM)” and the “liver/plasma ratio 4 h” value ([2]; three oral doses of 10 mg/kg) was “C (30 to ≤100)”. The “plasma exposure 4 h” value ([2]; three oral doses of 10 mg/kg) was “D (D: <100 nM)”.
For CN(CCS(=O)(=O)O)C(=O)c1ccc(-c2cccc(-c3c(-c4c(C#N)cccc4C#N)c4cc(F)ccc4n3S(=O)(=O)c3ccc(C(F)F)cc3)c2)c(Cl)c1 [10/2], the EC50 [1, 3] was < 100 nM, the “liver exposure 4 h” value ([2]; three oral doses of 10 mg/kg) was “D (>10 μM)” and the “liver/plasma ratio 4 h” value ([2]; three oral doses of 10 mg/kg) was “B (5 to ≤30)”. For the same molecule, the “plasma exposure 4 h” value ([2]; three oral doses of 10 mg/kg) was “D (D: <100 nM)”.
For O=C(O)c1ccc(-c2cccc(-c3c(-c4ccccc4C4COC4)c4cc(F)ccc4n3S(=O)(=O)c3ccc(C(F)F)cc3)c2)c(Cl)c1 [3/59], the EC50 [1, 3] was < 100 nM, the “liver exposure 4 h” value ([2]; three oral doses of 20 mg/kg) was “C (1 μM to ≤10 μM)” and the “liver/plasma ratio 4 h” value ([2]; three oral doses of 20 mg/kg) was “B (5 to ≤30)”. The “plasma exposure 4 h” value ([2]; three oral doses of 20 mg/kg) was “C (C: 100 nM to <300 nM)”.
In the case of N#Cc1cccc(C#N)c1-c1c(-c2cccc(-c3c(F)cc(CC(=O)O)cc3F)c2)n(S(=O)(=O)c2ccc(C(F)F)cc2)c2ccc(F)cc12 [3/73], the EC50 [1, 3] is reported as < 100 nM, the “liver exposure 4 h” value ([2]; three oral doses of 10 mg/kg) is reported as “B (300 nM to ≤1 μM)” and the “liver/plasma ratio 4 h” value ([2]; three oral doses of 10 mg/kg) is reported as “C (30 to ≤100)”. The “plasma exposure 4 h” value ([2]; three oral doses of 10 mg/kg) was “D (D: <100 nM)”.
For Cc1ccc(S(=O)(=O)n2c(-c3cccc(-c4ccc(C(=O)O)cc4Cl)c3)c(-c3ccsc3C#N)c3cc(F)ccc32)cc1 [3/48], the EC50 [1, 3] was 100 to 1000 nM, the “liver exposure 4 h” value ([2]; three oral doses of 20 mg/kg) was “C (1 μM to ≤10 μM)” and the “liver/plasma ratio 4 h” value ([2]; three oral doses of 20 mg/kg) was “C (30 to ≤100)”. For the same molecule, the “plasma exposure 4 h” value ([2]; three oral doses of 20 mg/kg) was “D (D: <100 nM)”.
With N#Cc1cccc(C#N)c1-c1c(-c2cccc(-c3ccc(C(=O)NCC(=O)O)cc3Cl)c2)n(S(=O)(=O)c2ccc(C(F)F)cc2)c2ccc(F)cc12 [21/3] the EC50 [1, 3] was < 100 nM, the “liver exposure 4 h” value ([2]; three oral doses of 10 mg/kg) was “C (1 μM to ≤10 μM)” and the “liver/plasma ratio 4 h” value ([2]; three oral doses of 10 mg/kg) was “D (>100)”. The “plasma exposure 4 h” value ([2]; three oral doses of 10 mg/kg) was “D (D: <100 nM)”.
With N#Cc1ccccc1-c1c(-c2cccc(-c3ccc(C(=O)O)cc3Cl)c2)n(S(=O)(=O)c2ccc(C(F)F)cc2)c2ccc(F)cc12 [11/33] the “FRETβ efficacy (value in brackets)” value ([1]; 1 μM 24(S)-25-epoxycholesterol as prestimulating agonist) was −99%, the EC50 ([1]; 1 μM 24(S)-25-epoxycholesterol as prestimulating agonist, read-out: FRETβ potency) was 19 nM and the EC50 [1, 3] was < 100 nM. For the same molecule, the “liver exposure 4 h” value ([2]; three oral doses of 20 mg/kg) was “C (1 μM to ≤10 μM)”, the “liver/plasma ratio 4 h” value ([2]; three oral doses of 20 mg/kg) was “C (30 to ≤100)” and the “plasma exposure 4 h” value ([2]; three oral doses of 20 mg/kg) was “C (C: 100 nM to <300 nM)”.
With Cc1ccc(S(=O)(=O)n2c(-c3cccc(-c4ccc(C(=O)O)cc4)c3)c(-c3ccsc3C#N)c3cc(F)ccc32)cc1C [23/2] the EC50 [1, 3] was 100 to 1000 nM, the “liver exposure 4 h” value ([2]; three oral doses of 20 mg/kg) was “A (<300 nM)” and the “liver/plasma ratio 4 h” value ([2]; three oral doses of 20 mg/kg) was “A (<5)”. The “plasma exposure 4 h” value ([2]; three oral doses of 20 mg/kg) was “C (C: 100 nM to <300 nM)”.
In the case of Cc1ccc(S(=O)(=O)n2c(-c3cccc(-c4ccc(C(=O)O)cc4)c3)c(-c3ccsc3C#N)c3cc(F)ccc32)cc1 [5/3], the EC50 [1, 3] is reported as 100 to 1000 nM, the “liver exposure 4 h” value ([2]; three oral doses of 20 mg/kg) is reported as “C (1 μM to ≤10 μM)” and the “liver/plasma ratio 4 h” value ([2]; three oral doses of 20 mg/kg) is reported as “B (5 to ≤30)”. The “plasma exposure 4 h” value ([2]; three oral doses of 20 mg/kg) was “D (D: <100 nM)”.
In the case of O=C(O)c1ccc(-c2cccc(-c3c(-c4ncccc4C(F)(F)F)c4cc(F)ccc4n3S(=O)(=O)c3ccc(C(F)F)cc3)c2)c(Cl)c1 [11/23], the EC50 [1, 3] is reported as < 100 nM, the “liver exposure 4 h” value ([2]; three oral doses of 20 mg/kg) is reported as “C (1 μM to ≤10 μM)” and the “liver/plasma ratio 4 h” value ([2]; three oral doses of 20 mg/kg) is reported as “B (5 to ≤30)”. For the same molecule, the “plasma exposure 4 h” value ([2]; three oral doses of 20 mg/kg) was “C (C: 100 nM to <300 nM)”.
In the case of N#Cc1cccc(C#N)c1-c1c(-c2cccc(-c3c(F)cc(C(=O)O)cc3F)c2)n(S(=O)(=O)c2ccc(C(F)F)cc2)c2ccc(F)cc12 [11/53], the EC50 [1, 3] is reported as < 100 nM, the “liver exposure 4 h” value ([2]; three oral doses of 10 mg/kg) is reported as “C (1 μM to ≤10 μM)” and the “liver/plasma ratio 4 h” value ([2]; three oral doses of 10 mg/kg) is reported as “C (30 to ≤100)”. The “plasma exposure 4 h” value ([2]; three oral doses of 10 mg/kg) was “D (D: <100 nM)”.
With N#Cc1cccc(C#N)c1-c1c(-c2cccc(-c3ccc(C(=O)O)cc3Cl)c2)n(S(=O)(=O)c2ccc(C(F)F)cc2)c2ccc(F)cc12 [11/12] the EC50 [1, 3] was < 100 nM, the “liver exposure 4 h” value ([2]; three oral doses of 20 mg/kg) was “C (1 μM to ≤10 μM)” and the “liver/plasma ratio 4 h” value ([2]; three oral doses of 20 mg/kg) was “C (30 to ≤100)”. The “plasma exposure 4 h” value ([2]; three oral doses of 20 mg/kg) was “D (D: <100 nM)”.
For N#Cc1sccc1-c1c(-c2cccc(-c3ccc(C(=O)O)cc3Cl)c2)n(S(=O)(=O)c2ccc(C(F)(F)F)nc2)c2ccc(F)cc12 [11/16], the EC50 [1, 3] was 100 to 1000 nM, the “liver exposure 4 h” value ([2]; three oral doses of 20 mg/kg) was “C (1 μM to ≤10 μM)” and the “liver/plasma ratio 4 h” value ([2]; three oral doses of 20 mg/kg) was “B (5 to ≤30)”. The “plasma exposure 4 h” value ([2]; three oral doses of 20 mg/kg) was “C (C: 100 nM to <300 nM)”.
With N#Cc1cccc(C#N)c1-c1c(-c2cccc(-c3ccc(C(=O)O)cc3Cl)c2)n(S(=O)(=O)c2ccc(C(F)(F)F)nc2)c2ccc(F)cc12 [11/37] the EC50 [1, 3] was < 100 nM, the “liver exposure 4 h” value ([2]; three oral doses of 10 mg/kg) was “C (1 μM to ≤10 μM)” and the “liver/plasma ratio 4 h” value ([2]; three oral doses of 10 mg/kg) was “C (30 to ≤100)”. For the same molecule, the “plasma exposure 4 h” value ([2]; three oral doses of 10 mg/kg) was “D (D: <100 nM)”.

— US11618747B2, “LXR modulators with bicyclic core moiety” (OrsoBio, Inc., priority 2018, dated 2023)
